Reference: patent US12357645B2, “Drug combination for treatment of gastric cancer” (priority 2023, dated 2025)

How the values were obtained:
gastric cancer = details: alone or in combination, when properly dosed
Excerpt: Gastric cancer is the most prevalent cancer in South Korea […]. […] Herein, we have evaluated efficacy of minnelide prodrug in combination with paclitaxel in a subcutaneous mouse model of gastric cancer and in a human clinical trial.

ovarian carcinoma cells = assay: Proliferation of ovarian carcinoma cells in vitro (activated with alkaline phosphatase); type: cell-based; details: concentration-dependent, 50-200 nM
[1] = tested on: gastric cancer cell lines MKN28 and MKN45; details: inhibits Sp1 to decrease HSP70; cited from earlier work
[2] = tested on: patients with advanced gastric cancer (AGC); assay: Phase 1 study of minnelide prodrug alone or with paclitaxel in advanced gastric cancer (NCT 05566834): safety, DLT, MTD, adverse events
[3] = Regimen A (PO daily x21 d/28 d), n = 11

Compound: CC(C)[C@]12O[C@H]1[C@@H]1O[C@]13[C@]1(O[C@H]1C[C@H]1C4=C(CC[C@@]13C)C(=O)OC4)[C@@H]2OCOP(=O)([O-])[O-].[Na+].[Na+] [minnelide prodrug, disodium; [(1S,2S,4S,5S,7S,8R,9R,11S, 13S)-1-methyl-17-oxo-7-propan-2-yl-3,6,10,16-tetraoxaheptacyclo [11.7.0.0^2,4.0^2,9.0^5,7.0^9,11.0^14,18]icos-14 (18)-en-8-yl]oxymethyl phosphate]
- toxic effects (gastric cancer): no significant toxic effects
- proliferation (ovarian carcinoma cells): reduced the proliferation
- cell death [1]: induce cell death
- Grade 5 AEs caused by gastric cancer progression, number ([2]; Regimen A): 3
- minnelide prodrug-related AE abdominal pain ([2]; Regimen A): 27.3%
- minnelide prodrug-related AE anorexia ([2]; Regimen A): 54.5%
- minnelide prodrug-related AE nausea ([2]; Regimen A): 45.5%
- Minnelide-related AE Abdominal pain, Any [2, 3]: 3 (27.3) n (%)
- Minnelide-related AE Abdominal pain, ≥Gr 3 [2, 3]: 2 (18.2) n (%)
- Minnelide-related AE Anorexia, Any [2, 3]: 6 (54.5)/— ^ n (%)
- Minnelide-related AE Fatigue, Any [2, 3]: 2 (18.2)/— ^ n (%)
- Minnelide-related AE Nausea, Any [2, 3]: 5 (45.5) n (%)
- Minnelide-related AE Nausea, ≥Gr 3 [2, 3]: 2 (18.2) n (%)
- Minnelide-related AE Neutropenia, Any [2, 3]: 1 (9.1)/1 (9.1) n (%)
- Minnelide-related AE Neutropenia, ≥Gr 3 [2, 3]: 1 (9.1)/1 (9.1) n (%)
- Minnelide-related AE Overall, Any [2, 3]: 8 (72.7) n (%)
- Minnelide-related AE Vomiting, Any [2, 3]: 1 (9.1)/1 (9.1) n (%)
- Minnelide-related AE Vomiting, ≥Gr 3 [2, 3]: 1 (9.1)/1 (9.1) n (%)
- TRAE Abdominal pain, Any [2, 3]: 5 (45.5) n (%)
- TRAE Abdominal pain, ≥Gr 3 [2, 3]: 2 (18.2) n (%)
- TRAE Anemia, Any [2, 3]: 2 (18.2)/2 (18.2) n (%)
- TRAE Anemia, ≥Gr 3 [2, 3]: 2 (18.2)/2 (18.2) n (%)
- TRAE Annualar scaly plaques, Any [2, 3]: 1 (9.1)/— n (%)
- TRAE Anorexia, Any [2, 3]: 8 (72.7)/— n (%)
- TRAE Azotemia, Any [2, 3]: 1 (9.1)/— n (%)
- TRAE Cancer pain, Any [2, 3]: 3 (27.3) n (%)
- TRAE Cancer pain, ≥Gr 3 [2, 3]: 1 (9.1) n (%)
- TRAE Cancer progression, Any [2, 3]: 3 (27.3)/3 (27.3) n (%)
- TRAE Cancer progression, ≥Gr 3 [2, 3]: 3 (27.3)/3 (27.3) n (%)
- TRAE Constipation, Any [2, 3]: 1 (9.1)/— n (%)
- TRAE Decreased vision, Any [2, 3]: 1 (9.1)/— n (%)
- TRAE Depression, Any [2, 3]: 1 (9.1)/— n (%)
- TRAE Dyspepsia, Any [2, 3]: 1 (9.1)/— n (%)
- TRAE Dysuria, Any [2, 3]: 1 (9.1)/— n (%)
- TRAE Fatigue, Any [2, 3]: 3 (27.3)/— n (%)
- TRAE Gastric stenosis, Any [2, 3]: 1 (9.1)/1 (9.1) n (%)
- TRAE Gastric stenosis, ≥Gr 3 [2, 3]: 1 (9.1)/1 (9.1) n (%)
- TRAE Hypophosphatemi, Any [2, 3]: 1 (9.1)/1 (9.1) n (%)
- TRAE Hypophosphatemi, ≥Gr 3 [2, 3]: 1 (9.1)/1 (9.1) n (%)
- TRAE Nausea, Any [2, 3]: 6 (54.5) n (%)
- TRAE Nausea, ≥Gr 3 [2, 3]: 2 (18.2) n (%)
- TRAE Neutropenia, Any [2, 3]: 1 (9.1)/1 (9.1) n (%)
- TRAE Neutropenia, ≥Gr 3 [2, 3]: 1 (9.1)/1 (9.1) n (%)
- TRAE Overall, Any [2, 3]: 11 (100.0) n (%)
- TRAE Overall, ≥Gr 3 [2, 3]: 8 (72.7) n (%)
- TRAE Tachycardia, Any [2, 3]: 1 (9.1)/— n (%)
- TRAE Urinary tract infection, Any [2, 3]: 1 (9.1)/— n (%)
- TRAE Vomiting, Any [2, 3]: 3 (27.3) n (%)
- TRAE Vomiting, ≥Gr 3 [2, 3]: 1 (9.1) n (%)
- dose-limiting toxicities (DLTs), number ([2]; Regimen A, dose level 3, 1.5 mg, Grade 3 abdominal pain): two and Two
- Minnelide-related AE Abdominal pain, Any ([2]; Total Regimens A-C, n = 36): 14 (38.9) n (%)
- Minnelide-related AE Abdominal pain, ≥Gr 3 ([2]; Total Regimens A-C, n = 36): 4 (11.1) n (%)
- Minnelide-related AE Anorexia, Any ([2]; Total Regimens A-C, n = 36): 15 (41.7)/— n (%)
- Minnelide-related AE Constipation, Any ([2]; Total Regimens A-C, n = 36): 1 (2.8)/— n (%)
- Minnelide-related AE Fatigue, Any ([2]; Total Regimens A-C, n = 36): 4 (11.1)/— n (%)
- Minnelide-related AE General weakness, Any ([2]; Total Regimens A-C, n = 36): 1 (2.8)/— n (%)
- Minnelide-related AE Nausea, Any ([2]; Total Regimens A-C, n = 36): 10 (27.8) n (%)
- Minnelide-related AE Nausea, ≥Gr 3 ([2]; Total Regimens A-C, n = 36): 2(5.6) n (%)
- Minnelide-related AE Neutropenia, Any ([2]; Total Regimens A-C, n = 36): 11 (30.5) n (%)
- Minnelide-related AE Neutropenia, ≥Gr 3 ([2]; Total Regimens A-C, n = 36): 7 (19.4) n (%)
- Minnelide-related AE Overall, Any ([2]; Total Regimens A-C, n = 36): 27 (75.0) n (%)
- Minnelide-related AE Overall, ≥Gr 3 ([2]; Total Regimens A-C, n = 36): 10 (27.8) n (%)
- Minnelide-related AE Pruritus, Any ([2]; Total Regimens A-C, n = 36): 1 (2.8)/— n (%)
- Minnelide-related AE Vomiting, Any ([2]; Total Regimens A-C, n = 36): 3 (8.3)/— n (%)
- TRAE Abdominal pain, Any ([2]; Total Regimens A-C, n = 36): 16 (44.4) n (%)
- TRAE Abdominal pain, ≥Gr 3 ([2]; Total Regimens A-C, n = 36): 4 (11.1) n (%)
- TRAE Alopecia, Any ([2]; Total Regimens A-C, n = 36): 2 (5.6)/— n (%)
- TRAE Anemia, Any ([2]; Total Regimens A-C, n = 36): 5 (13.9) n (%)
- TRAE Anemia, ≥Gr 3 ([2]; Total Regimens A-C, n = 36): 3 (8.3) n (%)
- TRAE Annualar scaly plaques, Any ([2]; Total Regimens A-C, n = 36): 1 (2.8)/— n (%)
- TRAE Anorexia, Any ([2]; Total Regimens A-C, n = 36): 18 (50.0)/— n (%)
- TRAE Azotemia, Any ([2]; Total Regimens A-C, n = 36): 2 (5.6)/— n (%)
- TRAE Cancer pain, Any ([2]; Total Regimens A-C, n = 36): 3 (8.3) n (%)
- TRAE Cancer pain, ≥Gr 3 ([2]; Total Regimens A-C, n = 36): 1 (2.8) n (%)
- TRAE Cancer progression, Any ([2]; Total Regimens A-C, n = 36): 4 (11.1)/4 (11.1) n (%)
- TRAE Cancer progression, ≥Gr 3 ([2]; Total Regimens A-C, n = 36): 4 (11.1)/4 (11.1) n (%)
- TRAE Constipation, Any ([2]; Total Regimens A-C, n = 36): 3 (8.3)/— n (%)
- TRAE Decreased vision, Any ([2]; Total Regimens A-C, n = 36): 1 (2.8)/— n (%)
- TRAE Depression, Any ([2]; Total Regimens A-C, n = 36): 1 (2.8)/— n (%)
- TRAE Dyspepsia, Any ([2]; Total Regimens A-C, n = 36): 2 (5.6)/— n (%)
- TRAE Dysuria, Any ([2]; Total Regimens A-C, n = 36): 1 (2.8)/— n (%)
- TRAE Edema, Any ([2]; Total Regimens A-C, n = 36): 1 (2.8)/— n (%)
- TRAE Fatigue, Any ([2]; Total Regimens A-C, n = 36): 7 (19.4)/— n (%)
- TRAE Gastric stenosis, Any ([2]; Total Regimens A-C, n = 36): 1 (2.8)/1 (2.8) n (%)
- TRAE Gastric stenosis, ≥Gr 3 ([2]; Total Regimens A-C, n = 36): 1 (2.8)/1 (2.8) n (%)
- TRAE General weakness, Any ([2]; Total Regimens A-C, n = 36): 2 (5.6)/— n (%)
- TRAE Headache, Any ([2]; Total Regimens A-C, n = 36): 1 (2.8)/— n (%)
- TRAE Hypercalcemia, Any ([2]; Total Regimens A-C, n = 36): 1 (2.8)/1 (2.8) n (%)
- TRAE Hypercalcemia, ≥Gr 3 ([2]; Total Regimens A-C, n = 36): 1 (2.8)/1 (2.8) n (%)
- TRAE Hypophosphatemi, Any ([2]; Total Regimens A-C, n = 36): 1 (2.8)/1 (2.8) n (%)
- TRAE Hypophosphatemi, ≥Gr 3 ([2]; Total Regimens A-C, n = 36): 1 (2.8)/1 (2.8) n (%)
- TRAE Jaundice, Any ([2]; Total Regimens A-C, n = 36): 1 (2.8)/1 (2.8) n (%)
- TRAE Jaundice, ≥Gr 3 ([2]; Total Regimens A-C, n = 36): 1 (2.8)/1 (2.8) n (%)
- TRAE Mucositis, Any ([2]; Total Regimens A-C, n = 36): 1 (2.8)/— n (%)
- TRAE Nausea, Any ([2]; Total Regimens A-C, n = 36): 12 (33.3) n (%)
- TRAE Nausea, ≥Gr 3 ([2]; Total Regimens A-C, n = 36): 2(5.6) n (%)
- TRAE Neutropenia, Any ([2]; Total Regimens A-C, n = 36): 11 (30.6) n (%)
- TRAE Neutropenia, ≥Gr 3 ([2]; Total Regimens A-C, n = 36): 7 (19.4) n (%)
- TRAE Overall, Any ([2]; Total Regimens A-C, n = 36): 34 (94.4) n (%)
- TRAE Overall, ≥Gr 3 ([2]; Total Regimens A-C, n = 36): 16 (44.4) n (%)
- TRAE Pruritus, Any ([2]; Total Regimens A-C, n = 36): 1 (2.8)/— n (%)
- TRAE Rash, Any ([2]; Total Regimens A-C, n = 36): 1 (2.8)/— n (%)
- TRAE Sore throat, Any ([2]; Total Regimens A-C, n = 36): 1 (2.8)/— n (%)
- TRAE Tachycardia, Any ([2]; Total Regimens A-C, n = 36): 2 (5.6)/— n (%)
- TRAE Tuberculosis, Any ([2]; Total Regimens A-C, n = 36): 1 (2.8)/— n (%)
- TRAE Urinary tract infection, Any ([2]; Total Regimens A-C, n = 36): 2 (5.6)/— n (%)
- TRAE Vomiting, Any ([2]; Total Regimens A-C, n = 36): 5 (13.9) n (%)
- TRAE Vomiting, ≥Gr 3 ([2]; Total Regimens A-C, n = 36): 1 (2.8) n (%)
- TRAE Weight loss, Any ([2]; Total Regimens A-C, n = 36): 1 (2.8)/— n (%)
- TRAE neutropenia ([2]; all regimens, 11/36): 30.6%
- TRAE nausea ([2]; all regimens, 12/36): 33.3%
- TRAE abdominal pain ([2]; all regimens, 16/36): 44.4%
- TRAEs above Grade 3, share of patients ([2]; all regimens, 16 patients of 36): 44.4%
- TRAE anorexia ([2]; all regimens, 18/36): 50%
- Grade 5 AEs caused by gastric cancer progression, number ([2]; all regimens, 36 patients): four and Four
- Grade 3 or higher AE with minnelide prodrug: abdominal pain ([2]; all regimens, n = 36): 11.1%
- Grade 3 or higher AE with minnelide prodrug: nausea ([2]; all regimens, n = 36): 5.6%
- Grade 3 or higher AE with minnelide prodrug: neutropenia ([2]; all regimens, n = 36): 19.4%
- Grade 3 or higher AEs with minnelide prodrug, overall ([2]; all regimens, n = 36): 27.8%
- TRAE above Grade 3: abdominal pain ([2]; all regimens, n = 36): 11.1%
- TRAE above Grade 3: neutropenia ([2]; all regimens, n = 36): 19.4%
- drop in blood counts: resolution after withholding the drug ([2]; in vivo): 4 to 8 days
- Grade ≥3 abdominal pain ([2]; monotherapy group): 18.2%
- Grade ≥3 nausea ([2]; monotherapy group): 18.2%
- Grade ≥3 neutropenia ([2]; monotherapy group): 9.1%
- Grade ≥3 vomiting ([2]; monotherapy group): 9.1%
- maximum tolerated dose (MTD) ([2]; monotherapy, PO once daily for 21 days every 4 weeks): 1.25 mg
- drop in blood counts: onset after start of drug ([2]; usually seen): 5 to 7 days
